Here are results for 91 compounds from a melting point compilation (Tetko et al.; mined from patent text by program, amines drawn as free bases though some values may be those of a salt).

Broadly, the melting point is the temperature, or range, at which the solid turns liquid.

Where only a bound is given, the exact number is not on record here.

For the compound `O=C(O)c1cncc(-c2cnc3c(c2)N(Cc2cc(F)ccc2F)CCN3)c1`, the melting point was 255 to 260 °C.

In turn, `CCn1c(=O)c2[nH]c(/C=C/c3cc(F)cc(F)c3)nc2n(CC)c1=O` registered a melting point of over 280 °C.

Compound `CCCCCCCCCCCCCCCCC(Cl)C(=O)O` (stereo unspecified) registered a melting point of 63.5 to 64 °C.

As for `Cc1ccc(-c2ccc3cc4c(cc3c2)C(C)(C)CCC4(C)C)cc1`, the melting point fell in the range of 91 to 92 °C.

Turning to `O=c1oc2c(c(O)c1C(c1ccccc1)C1CC1)CCCCC2CCC1OCCO1` (stereo unspecified), the melting point fell in the range of 68 to 76 °C.

As for `O=C(CC1CCCCCC1=O)c1ccc(Br)cc1` (stereo unspecified), the melting point lay in the range of 124 to 127 °C.

As for `Cc1cc(S(=O)(=O)Nc2cccc3ccccc23)c2c(C)ccc(C(C)C)cc1-2`, the melting point was in the range of 140 to 142 °C.

On to `Cc1c(NC(=O)c2ccc(OC[C@@H]3CCCO3)cc2)ccc2cc(CNCC(C)C)[nH]c12`, for which the melting point was found to be 159 °C.

Compound `CN(CP(=O)(O)O)C1CCS(=O)(=O)C1` (stereo unspecified) yielded a melting point of 222 to 225 °C.

Compound `COc1nc(C)nc(NN)c1Cl` returned a melting point of 153 to 154 °C.

`COc1ccc2c(OC)c(C(C)C)cc(OC)c2c1`: the melting point was in the range of 80 to 81.5 °C.

For the compound `S=c1[nH]nnn1CCN1CCOCC1`, the melting point was in the range of 226 to 228 °C.

Turning to `CCCC1=C(O)C(C(=O)CC)C(=O)OC1=O` (stereo unspecified), the melting point is 149 to 150 °C.

For the compound `CC1=C(C2C=CN(C(=O)OCC(Cl)(Cl)Cl)C=C2)SCC(=O)N1`, the melting point fell in the range of 158 to 160 °C.

In turn, `Cn1cc(-c2cc(-c3ccncc3)ccn2)n(-c2ccc(C(C)(C)C#N)cc2)c1=O` had a melting point of 226 °C.

For `COc1cc(-c2nc3ccc(O)cc3n2Cc2ccccc2C(F)(F)F)cc(OC)c1OC`, the melting point turned out to be 191 °C.

Regarding `Cc1[nH]c2ccccc2c1CCCN1CCC(O)(Cc2ccccc2)CC1`, the melting point lay in the range of 132 to 134 °C.

For the compound `CN1CCN(c2nn(S(=O)(=O)c3ccccc3)c3ccc(Cl)cc23)CC1`, the melting point lay in the range of 145 to 147 °C.

In turn, `CC(C)(C)OC(=O)N=C(N)N(CCc1ccc(OCCC2Oc3ccccc3N(Cc3cccc(Cl)c3)C2=O)cc1)C(=O)OC(C)(C)C` (stereo unspecified) gave a melting point of 74 to 78 °C.

In turn, `Nc1nc(-c2ccccc2)c(-c2ccnc(Nc3cccc(CO)c3)n2)s1` returned a melting point of 214 to 215 °C.

Turning to `Cc1ccc(-c2nn(-c3ccccc3)c(N)c2C#N)cc1`, the melting point was in the range of 186 to 188 °C.

Compound `COc1c(C=O)c2cc(Cl)c(Cl)cc2n1C1OC(CO)C(O)C1O` (stereo unspecified) displayed a melting point of 198 to 199 °C.

Turning to `Fc1ccc(Oc2ccnc3c(Cl)cccc23)c(Cl)c1`, the melting point lay within 99 to 101 °C.

Take `CN1C2CCC1CN(c1ccc(-c3ccccc3)cn1)C2`: the melting point was 110 °C.

`CCn1ncnc1COc1nn2c(-c3ccccc3F)nncc2c1-c1ccccc1` displayed a melting point of 171 to 173 °C.

As to `Clc1ccccc1/C=C/C1=CCN(Cc2c[nH]c3ncccc23)CC1`, the melting point was 174 to 176 °C.

On to `O=Cc1ccc(OCc2ccccc2)c(F)c1`, for which the melting point was in the range of 94 to 95 °C.

For `Clc1ccc2c(c1)C(c1ccccc1)=NCc1nnc(CN3CCCCC3)n1-2`, the melting point was 202 to 203 °C.

Take `NCC(=O)N1CCC(C2c3ncc(Br)cc3CCc3cc(Cl)cc(Cl)c32)CC1` (single isomer, unassigned; (+)): the melting point lay in the range of 81 to 122 °C.

As for `CCCN(CCC(=O)Nc1c(SC)nc(C)nc1N(CC)CC)c1ccccc1`, the melting point was 147 to 149 °C.

The compound `COc1ccc2cccc3c2c1C(CCNC(C)=O)CC3` (stereo unspecified) returned a melting point of 98 °C.

On to `NN=C(c1cccc(F)c1)c1cccc(F)c1`, for which the melting point fell in the range of 35 to 36 °C.

`COc1cc2oc(=O)c3c(c2cc1[N+](=O)[O-])CCN(CC(C)=O)C3` yielded a melting point of 222 to 225 °C.

Take `C=CCOc1cccc(-n2cnc(-c3nc(CC)no3)c2)c1`: the melting point lay in the range of 73 to 74 °C.

`CCOC(=O)c1c(CC)nn2ccc3c(c12)CCO3` had a melting point of 110 to 111 °C.

`CCC(C(C)=CC(CNC(=O)C1=NNC(=O)CC1)=NO)[N+](=O)[O-]` (stereo unspecified) displayed a melting point of 129 to 130 °C.

As to `CCOC(=O)C1=C(C)NC(C)=C(C(=O)OCC)C1c1ccc(Br)cc1F`, the melting point lay in the range of 154 to 155 °C.

With `CC(=O)Oc1ccc(-c2cc3ccc(OC(C)=O)cc3s2)cc1`, the melting point fell in the range of 208 to 210 °C.

As to `Cc1ccc(C(=O)[C@@H]2[C@@H](C)CCCC2(C)C)cc1Cl`, the melting point lay in the range of 59 to 60 °C.

For `CCOc1ccccc1-c1cccc(-n2cnc(-c3nc(C)no3)c2)c1`, the melting point lay within 110 to 113 °C.

The compound `Cn1ncc(C23CCCN(CC2)C3)n1` (stereo unspecified) came in with a melting point of 65 to 70 °C.

Compound `C=C(C)Cc1cccc(C(=O)O)c1S` gave a melting point of 89 to 92 °C.

Compound `CC1(C)Oc2ccc(C#N)cc2C(OC(=O)C2CCCN2S(=O)(=O)c2ccc([N+](=O)[O-])cc2)C1Br` (stereo unspecified) displayed a melting point of 177 to 180 °C.

For the compound `O=C1c2cc(OCc3ccc4ccccc4n3)ccc2SCC1Cc1ccccc1` (stereo unspecified), the melting point was 127 to 130 °C.

For the compound `CCOC(=O)NCCCCCCNC(=O)OCC`, the melting point was 80 to 82 °C.

Compound `CC(C)(C)C(=O)c1cnn2c1NCCC2` yielded a melting point of 169 to 170 °C.

As for `CC1(C)CC(=O)c2c(nc(C3CCCC3)c(C(=O)c3ccc(C(F)(F)F)cc3)c2-c2ccc(F)c(F)c2)C1`, the melting point is 210 to 212 °C.

Compound `O=C1CN2Cc3c(ccc(Cl)c3Cl)N=C2N1` showed a melting point of over 300 °C.

`O=C(NCc1ccncc1)c1ccccc1` yielded a melting point of 177 °C.

Regarding `CCCC=C(NC(=O)c1ccccc1)C(=O)OCC`, the melting point is 68 to 70 °C.

`COc1c(F)cc(F)c(C(N)=O)c1F` gave a melting point of 102 °C.

`COC(=O)c1ccc(-c2ccccc2)cc1S(=O)(=O)NC(=O)Nc1nc(C)nc(OC)n1`: the melting point fell in the range of 198 to 200 °C.

`NC(=O)CCCC1Cc2ccccc2C1` returned a melting point of 116 to 118 °C.

Turning to `CSc1cnc(NC(=O)c2ccccc2OC(C)=O)s1`, the melting point lay in the range of 145 to 147 °C.

For the compound `CC1(C)CCC(C)(C)c2c(OCc3ccc(F)cc3)cc(C(=O)/C=C/c3ccc(C(=O)O)cc3)cc21`, the melting point stood at 241 °C.

`O=C([C@H]1CCCN1C(=O)Nc1ccc2ccccc2c1)N1CCc2c([nH]c3ccccc23)C1` registered a melting point of 152 to 155 °C.

For `CO[C@H]([C@@H](C)C(=S)NCCc1ccccc1)[C@@H]1CCCN1C(=O)OC(C)(C)C`, the melting point fell in the range of 107 to 109 °C.

Consider `Cc1nnc2c(-c3ccccn3)cccn12`, for which the melting point lay in the range of 142 to 143 °C.

`CCNc1c(C(=O)OCC)c(C)nc(Cl)c1[N+](=O)[O-]` displayed a melting point of 36 to 37 °C.

Regarding `O=c1[nH]ncn1N=Cc1cccnc1`, the melting point was 264 to 265 °C.

The compound `C=CCN1C(C(=O)Nc2coc3ccccc3c2=O)C(=O)c2ccccc2S1(=O)=O` (stereo unspecified) yielded a melting point of 218 to 220 °C.

As to `CCOc1cccc(CC(=O)O)c1OCCCc1cn(-c2ccc(C(F)(F)F)cn2)nc1C(CC)CC`, the melting point lay in the range of 83 to 84 °C.

Compound `COc1ccc2c(c1)-c1ncc(C(=O)O)c(=O)n1CC2` returned a melting point of 237 to 239 °C.

Compound `CC(C)CNC1=NS(=O)(=O)c2ccc(Cl)cc2N1` returned a melting point of 298 to 301 °C.

In turn, `CCCCCCCc1ccnc2c(O)cccc12` had a melting point of 92 to 93.5 °C.

The compound `S=C(Nc1cccnc1)N1N=CCC1c1ccccc1` (stereo unspecified) displayed a melting point of 156 to 158 °C.

Regarding `Cc1nc2cc(-c3nn(C(C)c4oc5ccccc5c(=O)c4-c4cccc(F)c4)c4ncnc(N)c34)ccc2[nH]1` (stereo unspecified), the melting point was 154 to 156 °C.

The compound `CCOC(=O)c1ccc(NC(=O)C(COc2cccnc2)NS(=O)(=O)c2ccc(Cl)cc2)cc1` (racemic) had a melting point of 119 to 124 °C.

The compound `CC(=O)NCc1c(C)cc(CN2CCN(c3ccc(F)cc3)CC2)cc1C` came in with a melting point of 163 to 164 °C.

With `C=CCOC(=O)c1ccc(C(=O)NCc2ccc3c(c2CO)C(C)(C)CCC3(C)C)cc1`, the melting point is 140 to 145 °C.

For the compound `COc1c(C)c(N)c2c(c1C)C(c1ccc(C(C)C)cc1)C(C)(C)O2` (stereo unspecified), the melting point lay in the range of 111 to 112 °C.

On to `CCCn1c(CCOC)nc2c(N)nc3cc(OC4CCN(C(=O)NC(C)C)CC4)ccc3c21`, for which the melting point was in the range of 176 to 179 °C.

Compound `C1=C(/C=C/c2cccs2)CCN(Cc2c[nH]c3ncccc23)C1` displayed a melting point of 202 to 204 °C.

The compound `CCOC(=O)C(C(=O)OCC)C(=O)c1ccc2oc3ncccc3c(=O)c2c1` yielded a melting point of 137 to 138 °C.

In the case of `NC(=O)C1N=C(c2ccccc2)c2cc(Cl)ccc2NC1=O` (stereo unspecified), the melting point was in the range of 255 to 256 °C.

Consider `CC(C)(C)c1cc(CCc2ccccc2NC(=O)NCc2ccco2)cc(C(C)(C)C)c1O`, for which the melting point was 170 °C.

`O=C1CC(CSc2nc3ccccc3s2)C(=O)O1` (stereo unspecified) registered a melting point of 87 to 88 °C.

The compound `COc1cc(C(C)C)c2c(c1)S(=O)(=O)N(COC(=O)C1CCC(=O)N1)C2=O` (stereo unspecified) came in with a melting point of 159 to 160 °C.

`CCOC(=O)Cn1nnnc1Cl` displayed a melting point of 57 to 60 °C.

Compound `COc1ccc(Cn2nnnc2S(=O)(=O)c2ccc(C)cc2)cc1` yielded a melting point of 125 to 126 °C.

As to `S=S1N=C2SCSC2=N1`, the melting point was 99 °C.

`CC(=O)c1cc(N2CCCC2)ccc1NC(=O)c1cccc(OCc2ccccc2)c1` returned a melting point of 131 to 133 °C.

`Cc1c(O)ccc(C=O)c1O` displayed a melting point of 150 °C.

As to `CCC(=O)NCC(C)(C)c1ccc(C(=O)Nc2cn3cc(Cl)ccc3n2)cc1`, the melting point was in the range of 225 to 227 °C.

In turn, `CCOC(=O)COc1ccc([N+](=O)[O-])cc1OC` had a melting point of 87 to 88 °C.

Regarding `O=c1c(Oc2ccc(-c3ccncc3)cc2)c(-n2ccnc2)cnn1-c1ccc(Cl)cc1`, the melting point turned out to be 188 °C.

The compound `O=C(Cc1nnn[nH]1)OCc1ccccc1` registered a melting point of 72 to 73 °C.

With `CC(C)(C)c1cc(C(O)C#Cc2ccc(C(=O)O)cc2)ccc1N1CCCCC1` (stereo unspecified), the melting point is 112 °C.

For `COC(=O)C1C=CCN2C(=O)C(CCSC(C)=O)(Cc3ccccc3)C(=O)N12` (stereo unspecified), the melting point was 161 to 162 °C.

On to `CC1=NN(c2ccc(Cl)cc2)C(=O)C1C(=O)Nc1ccc(F)cc1` (stereo unspecified), for which the melting point is 109 to 113 °C.

Consider `c1csc(-c2nc(COc3ccc(CCCn4ccnc4)cc3)cs2)c1`, for which the melting point was 76 to 77 °C.
